Measured values as given in patent US6358885B1, “Substituted phenylheterocyclic herbicides” (Mississippi State University, priority 1992, dated 2002).

Experiments:
Test in all cases: Test B preemergence/postemergence greenhouse plant response rating 0 to 10
rape = assay type: in vivo, Brassica napus; settings: 0 to 10 scale
Outline: (§1)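 Test chemicals were sprayed onto freshly planted seed and, concurrently, onto young plants between the one and four leaf stage. After a twelve- to sixteen-day greenhouse period, each species was visually compared with untreated controls.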

sorghum = assay type: in vivo, Sorghum bicolor; settings: 0 to 10 scale
Outline: as §1

chickweed = assay type: in vivo, Stellaria media; settings: 0 to 10 scale
Outline: as §1

wheat = assay type: in vivo, Triticum aestivum; settings: 0 to 10 scale
Outline: as §1

purple nutsedge = assay type: in vivo, Cyperus rotundus; settings: 0 to 10 scale
Outline: as §1

soybean = assay type: in vivo, Glycine max; settings: 0 to 10 scale
Outline: as §1

cotton = assay type: in vivo, Gossypium hirsutum; settings: 0 to 10 scale
Outline: as §1

wild oat = assay type: in vivo, Avena fatua; settings: 0 to 10 scale
Outline: as §1

barley = assay type: in vivo, Hordeum vulgare; settings: 0 to 10 scale
Outline: as §1

cocklebur = assay type: in vivo, Xanthium pensylvanicum; settings: 0 to 10 scale
Outline: as §1

sugar beet = assay type: in vivo, Beta vulgaris; settings: 0 to 10 scale
Outline: as §1

cheatgrass = assay type: in vivo, Bromus secalinus; settings: 0 to 10 scale
Outline: as §1

giant foxtail = assay type: in vivo, Setaria faberii; settings: 0 to 10 scale
Outline: as §1

rice = assay type: in vivo, Oryza sativa; settings: 0 to 10 scale
Outline: as §1

corn = assay type: in vivo, Zea mays; settings: 0 to 10 scale
Outline: as §1

bedstraw = assay type: in vivo, Galium aparine; settings: 0 to 10 scale
Outline: as §1

morningglory = assay type: in vivo, Ipomoea hederacea; settings: 0 to 10 scale
Outline: as §1

wild buckwheat = assay type: in vivo, Polygonum convolvulus; settings: POSTEMERGENCE, 0 to 10 scale
Outline: as §1

velvetleaf = assay type: in vivo, Abutilon theophrasti; settings: 0 to 10 scale
Outline: as §1

lambsquarters = assay type: in vivo, Chenopodium album; settings: 0 to 10 scale
Outline: as §1

blackgrass = assay type: in vivo, Alopecurus myosuroides; settings: 0 to 10 scale
Outline: as §1

crabgrass = assay type: in vivo, Digitaria spp.; settings: 0 to 10 scale
Outline: as §1

barnyardgrass = assay type: in vivo, Echinochloa crus-galli; settings: 0 to 10 scale
Outline: as §1

Question: Which results are given for `CCCCN1C(=O)COc2cc(F)c(-c3nn4c(c3Cl)CCCC4)cc21` [Compound 57]?
Answer: Plant response rating, Rape (rape; POSTEMERGENCE, Rate 10 g/ha): 10; Plant response rating, Rape (rape; POSTEMERGENCE, Rate 50 g/ha): 10; Plant response rating, Rape (rape; PREEMERGENCE, Rate 50 g/ha): 0; Plant response rating, Sorghum (sorghum; POSTEMERGENCE, Rate 10 g/ha): 2; Plant response rating, Sorghum (sorghum; POSTEMERGENCE, Rate 50 g/ha): 4; Plant response rating, Sorghum (sorghum; PREEMERGENCE, Rate 50 g/ha): 0; Plant response rating, Chickweed (chickweed; POSTEMERGENCE, Rate 10 g/ha): 8; Plant response rating, Chickweed (chickweed; POSTEMERGENCE, Rate 50 g/ha): 10; Plant response rating, Chickweed (chickweed; PREEMERGENCE, Rate 10 g/ha): 6; Plant response rating, Chickweed (chickweed; PREEMERGENCE, Rate 50 g/ha): 9; Plant response rating, Wheat (wheat; POSTEMERGENCE, Rate 10 g/ha): 7; Plant response rating, Wheat (wheat; POSTEMERGENCE, Rate 50 g/ha): 7; Plant response rating, Wheat (wheat; PREEMERGENCE, Rate 50 g/ha): 2; Plant response rating, Nutsedge (purple nutsedge; POSTEMERGENCE, Rate 10 g/ha): 2; Plant response rating, Nutsedge (purple nutsedge; POSTEMERGENCE, Rate 50 g/ha): 4; Plant response rating, Nutsedge (purple nutsedge; PREEMERGENCE, Rate 50 g/ha): 0; Plant response rating, Soybean (soybean; POSTEMERGENCE, Rate 10 g/ha): 6; Plant response rating, Soybean (soybean; POSTEMERGENCE, Rate 50 g/ha): 8; Plant response rating, Soybean (soybean; PREEMERGENCE, Rate 50 g/ha): 0; Plant response rating, Cotton (cotton; POSTEMERGENCE, Rate 10 g/ha): 10; Plant response rating, Cotton (cotton; POSTEMERGENCE, Rate 50 g/ha): 10; Plant response rating, Cotton (cotton; PREEMERGENCE, Rate 10 g/ha): 0; Plant response rating, Cotton (cotton; PREEMERGENCE, Rate 50 g/ha): 2; Plant response rating, Wild oat (wild oat; POSTEMERGENCE, Rate 10 g/ha): 4; Plant response rating, Wild oat (wild oat; POSTEMERGENCE, Rate 50 g/ha): 7; Plant response rating, Wild oat (wild oat; PREEMERGENCE, Rate 50 g/ha): 5; Plant response rating, Barley (barley; POSTEMERGENCE, Rate 10 g/ha): 4; Plant response rating, Barley (barley; POSTEMERGENCE, Rate 50 g/ha): 4; Plant response rating, Barley (barley; PREEMERGENCE, Rate 10 g/ha): 0; Plant response rating, Barley (barley; PREEMERGENCE, Rate 50 g/ha): 0; Plant response rating, Cocklebur (cocklebur; POSTEMERGENCE, Rate 10 g/ha): 9; Plant response rating, Cocklebur (cocklebur; POSTEMERGENCE, Rate 50 g/ha): 9; Plant response rating, Cocklebur (cocklebur; PREEMERGENCE, Rate 10 g/ha): 0; Plant response rating, Cocklebur (cocklebur; PREEMERGENCE, Rate 50 g/ha): 3; Plant response rating, Sugar beet (sugar beet; POSTEMERGENCE, Rate 10 g/ha): 10; Plant response rating, Sugar beet (sugar beet; POSTEMERGENCE, Rate 50 g/ha): 10; Plant response rating, Sugar beet (sugar beet; PREEMERGENCE, Rate 50 g/ha): 9; Plant response rating, Cheatgrass (cheatgrass; POSTEMERGENCE, Rate 10 g/ha): 4; Plant response rating, Cheatgrass (cheatgrass; POSTEMERGENCE, Rate 50 g/ha): 6; Plant response rating, Cheatgrass (cheatgrass; PREEMERGENCE, Rate 10 g/ha): 3; Plant response rating, Cheatgrass (cheatgrass; PREEMERGENCE, Rate 50 g/ha): 5; Plant response rating, Giant foxtail (giant foxtail; POSTEMERGENCE, Rate 10 g/ha): 5; Plant response rating, Giant foxtail (giant foxtail; POSTEMERGENCE, Rate 50 g/ha): 6; Plant response rating, Giant foxtail (giant foxtail; PREEMERGENCE, Rate 10 g/ha): 0; Plant response rating, Giant foxtail (giant foxtail; PREEMERGENCE, Rate 50 g/ha): 2; Plant response rating, Rice (rice; POSTEMERGENCE, Rate 10 g/ha): 3; Plant response rating, Rice (rice; POSTEMERGENCE, Rate 50 g/ha): 3; Plant response rating, Rice (rice; PREEMERGENCE, Rate 50 g/ha): 0; Plant response rating, Corn (corn; POSTEMERGENCE, Rate 10 g/ha): 3; Plant response rating, Corn (corn; POSTEMERGENCE, Rate 50 g/ha): 4; Plant response rating, Corn (corn; PREEMERGENCE, Rate 50 g/ha): 0; Plant response rating, Bedstraw (bedstraw; POSTEMERGENCE, Rate 10 g/ha): 9; Plant response rating, Bedstraw (bedstraw; POSTEMERGENCE, Rate 50 g/ha): 9; Plant response rating, Bedstraw (bedstraw; PREEMERGENCE, Rate 10 g/ha): 6; Plant response rating, Bedstraw (bedstraw; PREEMERGENCE, Rate 50 g/ha): 8; Plant response rating, Morningglory (morningglory; POSTEMERGENCE, Rate 10 g/ha): 10; Plant response rating, Morningglory (morningglory; POSTEMERGENCE, Rate 50 g/ha): 10; Plant response rating, Morningglory (morningglory; PREEMERGENCE, Rate 50 g/ha): 10; Plant response rating, Wild buckwheat (wild buckwheat; Rate 10 g/ha): 10; Plant response rating, Wild buckwheat (wild buckwheat; Rate 50 g/ha): 10; Plant response rating, Velvetleaf (velvetleaf; POSTEMERGENCE, Rate 10 g/ha): 6; Plant response rating, Velvetleaf (velvetleaf; POSTEMERGENCE, Rate 50 g/ha): 9; Plant response rating, Velvetleaf (velvetleaf; PREEMERGENCE, Rate 50 g/ha): 10; Plant response rating, Lambsquarter (lambsquarters; POSTEMERGENCE, Rate 10 g/ha): 9; Plant response rating, Lambsquarter (lambsquarters; POSTEMERGENCE, Rate 50 g/ha): 10; Plant response rating, Lambsquarter (lambsquarters; PREEMERGENCE, Rate 50 g/ha): 10; Plant response rating, Blackgrass (blackgrass; POSTEMERGENCE, Rate 10 g/ha): 4; Plant response rating, Blackgrass (blackgrass; POSTEMERGENCE, Rate 50 g/ha): 7; Plant response rating, Blackgrass (blackgrass; PREEMERGENCE, Rate 10 g/ha): 3; Plant response rating, Blackgrass (blackgrass; PREEMERGENCE, Rate 50 g/ha): 6; Plant response rating, Crabgrass (crabgrass; POSTEMERGENCE, Rate 10 g/ha): 2; Plant response rating, Crabgrass (crabgrass; POSTEMERGENCE, Rate 50 g/ha): 3; Plant response rating, Crabgrass (crabgrass; PREEMERGENCE, Rate 10 g/ha): 0; Plant response rating, Crabgrass (crabgrass; PREEMERGENCE, Rate 50 g/ha): 0; Plant response rating, Barnyardgrass (barnyardgrass; POSTEMERGENCE, Rate 10 g/ha): 3; Plant response rating, Barnyardgrass (barnyardgrass; POSTEMERGENCE, Rate 50 g/ha): 3; Plant response rating, Barnyardgrass (barnyardgrass; PREEMERGENCE, Rate 10 g/ha): 0; Plant response rating, Barnyardgrass (barnyardgrass; PREEMERGENCE, Rate 50 g/ha): 3
